Results from patent US8232319B2, “Amino phosphate derivative and S1P receptor modulator having same as an active ingredient” (Kyorin Pharmaceutical Co., Ltd., priority 2006, dated 2012).

Key:
Format in all cases: cell-based
Settings in all cases: Fluo 3, 100% = S1P at 10^-6 M
human S1P1 receptor = target: T1, human S1P1 receptor (Homo sapiens, UniProt P21453); assay: Intracellular calcium mobilization induced test, hS1P1 receptors expressing CHO-K1 cells
T1 construct: expressed in transfected cells; host or cells: CHO-K1
Procedure: (§1) Intracellular Calcium Mobilization Induced Test of a Subject Compound Against Human S1P (sphingosine-1-phosphate) Receptor-expressing Cells
(§2) Human S1P receptors expressing CHO-K1 cells (hS1P1 receptors expressing CHO-K1 cells, hS1P3 receptors expressing CHO-K1 cells, and hS1P4 receptors expressing CHO-K1 cells), were maintained in Ham's F-12 medium containing 10% fetal bovine serum and 400 μg/mL Geneticin. Into a black, clear bottom, culture plate (BD Falcon) with 96 wells, 7×10^4 cells/well of the hS1P1 and hS1P3 receptors expressing CHO-K1 cells were plated, and […] of the hS1P4 receptors expressing CHO-K1 cells were plated. The cells were incubated overnight at 37° C. at 5% CO2. The medium in the wells were removed by suction. A loading buffer included in a Calcium Kit-Fluo 3 reagent (Dojindo Laboratories) was added as a fluorescent Ca^2+-binding indicator. The cells were incubated for 80 minutes at 37° C. at 5% CO2. After the incubation, the wells were washed with PBS. A recording buffer included in a Calcium Kit-Fluo 3 reagent was added, and the cells were incubated for 20 minutes at 37° C. at 5% CO2. Using a microplate spectrophotofluorometer (FLEX Station, Molecular Devices), the fluorescence intensity at an excitation wavelength of 485 nm and a detection wavelength of 525 nm was measured. S1P and the subject compound prepared in medium so that the concentration was 10-fold that of the final concentration (final DMSO concentration of 0.1%). The solution was added 18 seconds after the fluorescence measurement was started, and then fluorescence intensity was continuously measured every 1.5 seconds until 100 seconds after addition. A value (fluorescence increase) obtained by subtracting the minimum fluorescence intensity from the maximum fluorescence intensity was calculated from the measurement data. Taking the difference between the fluorescence increase when the solvent was added and the fluorescence increase when the S1P was allowed to act at 10^−6 M as 100%, the fluorescence increase ratio (%) of the subject compound was calculated. Taking this value as the intracellular calcium mobilization induced activity of the subject compound, the EC50 value was determined using PRISM software (GraphPad). In Table 1, 10 nmol/L>EC50 value ≧1 nmol/L is indicated as a +, and 1 nmol/L>EC50 value is indicated as a ++.

human S1P4 receptor = target: T2, human S1P4 receptor (Homo sapiens, UniProt O95977); assay: Intracellular calcium mobilization induced test, hS1P4 receptors expressing CHO-K1 cells
T2 construct: expressed in transfected cells; host or cells: CHO-K1
T2 sequence (O95977 1-384): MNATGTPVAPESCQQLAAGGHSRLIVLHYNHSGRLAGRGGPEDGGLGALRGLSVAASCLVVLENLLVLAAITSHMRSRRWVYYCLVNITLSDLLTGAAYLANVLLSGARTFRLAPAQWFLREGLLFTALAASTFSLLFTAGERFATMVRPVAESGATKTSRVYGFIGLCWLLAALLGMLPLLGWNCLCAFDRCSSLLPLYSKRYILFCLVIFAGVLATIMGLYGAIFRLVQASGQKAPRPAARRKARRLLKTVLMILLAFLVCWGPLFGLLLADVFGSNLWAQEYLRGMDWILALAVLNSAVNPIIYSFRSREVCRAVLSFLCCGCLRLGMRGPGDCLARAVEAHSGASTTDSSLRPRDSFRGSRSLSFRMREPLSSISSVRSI
Procedure: as §1, §2

human S1P3 receptor = target: T3, human S1P3 receptor (Homo sapiens, UniProt Q99500); assay: Intracellular calcium mobilization induced test, hS1P3 receptors expressing CHO-K1 cells
T3 construct: expressed in transfected cells; host or cells: CHO-K1
Procedure: as §1, §2

T1 sequence (P21453 whole entry): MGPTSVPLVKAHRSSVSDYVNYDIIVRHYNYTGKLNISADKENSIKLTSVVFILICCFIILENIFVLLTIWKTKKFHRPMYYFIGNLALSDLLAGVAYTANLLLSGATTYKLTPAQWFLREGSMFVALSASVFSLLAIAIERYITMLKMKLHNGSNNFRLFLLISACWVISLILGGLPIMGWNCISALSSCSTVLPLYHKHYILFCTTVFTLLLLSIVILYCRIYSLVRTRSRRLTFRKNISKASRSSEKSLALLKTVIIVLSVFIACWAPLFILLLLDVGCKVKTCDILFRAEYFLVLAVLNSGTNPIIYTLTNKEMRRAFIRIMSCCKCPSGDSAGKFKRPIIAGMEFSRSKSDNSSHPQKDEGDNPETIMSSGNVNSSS
T3 sequence (Q99500 whole entry): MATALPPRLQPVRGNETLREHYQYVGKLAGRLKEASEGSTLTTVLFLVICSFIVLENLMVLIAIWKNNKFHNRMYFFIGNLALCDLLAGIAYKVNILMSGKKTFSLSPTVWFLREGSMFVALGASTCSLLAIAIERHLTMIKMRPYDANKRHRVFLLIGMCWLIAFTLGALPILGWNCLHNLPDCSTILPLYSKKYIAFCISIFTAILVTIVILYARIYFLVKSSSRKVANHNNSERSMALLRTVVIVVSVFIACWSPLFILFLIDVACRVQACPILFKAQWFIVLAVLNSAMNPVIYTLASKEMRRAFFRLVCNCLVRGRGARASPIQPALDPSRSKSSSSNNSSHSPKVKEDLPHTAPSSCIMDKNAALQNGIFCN

Row | Compound | EC50 (human S1P1 receptor) [nM] | EC50 (human S1P4 receptor) [nM] | EC50 (human S1P3 receptor) [nM]
1 | C[C@@](N)(CCCc1ccc(Oc2cccc(C(F)(F)F)c2)cc1Cl)COP(=O)(O)O [Example 40, (R)-2-amino-5-[2-chloro-4-(3-trifluoromethylphenoxy)phenyl]-2-methylpentyl phosphoric acid monoester] | < 1 | 1 to 10 | > 10000
2 | C[C@@](N)(CCCc1ccc(Sc2cccc(C(F)(F)F)c2)cc1Cl)COP(=O)(O)O [Example 41, (R)-2-amino-5-[2-chloro-4-(3-trifluoromethylphenylthio)phenyl]-2-methylpentyl phosphoric acid monoester] | < 1 | 1 to 10 | > 10000
3 | C[C@@](N)(CCc1ccc(Oc2cccc(C(F)(F)F)c2)cc1Cl)COP(=O)(O)O [Example 42, (R)-2-amino-4-[2-chloro-4-(3-trifluoromethylphenoxy)phenyl]-2-methylbutyl phosphoric acid monoester] | < 1 | 1 to 10 | > 10000
4 | C[C@@](N)(CCc1ccc(Sc2cccc(C(F)(F)F)c2)cc1Cl)COP(=O)(O)O [Example 43] | < 1 | 1 to 10 | > 10000
5 | CCc1cccc(Sc2ccc(CC[C@@](C)(N)COP(=O)(O)O)c(Cl)c2)c1 [Example 44, (R)-2-amino-4-[2-chloro-4-(3-ethylphenylthio)phenyl]-2-methylbutyl phosphonic acid monoester] | < 1 | 1 to 10 | > 10000
6 | Cc1cccc(Oc2ccc(CCC[C@@](C)(N)COP(=O)(O)O)c(Cl)c2)c1 [Example 45, (R)-2-amino-5-[2-chloro-4-(3-methylphenoxy)phenyl]-2-methylpentyl phosphonic acid monoester] | < 1 | 1 to 10 | > 10000
7 | CCc1cccc(Sc2ccc(CCC[C@@](C)(N)COP(=O)(O)O)c(Cl)c2)c1 [Example 46, (R)-2-amino-5-[2-chloro-4-(3-ethylphenylthio)phenyl]-2-methylpentyl phosphonic acid monoester] | < 1 | 1 to 10 | > 10000
8 | CCCc1cccc(Oc2ccc(CCC[C@@](C)(N)COP(=O)(O)O)c(Cl)c2)c1 [Example 47, (R)-2-amino-5-[2-chloro-4-(3-propylphenoxy)phenyl]-2-methylpentyl phosphonic acid monoester] | < 1 | 1 to 10 | > 10000
9 | C[C@@](N)(CCCc1ccc(Sc2cccc(Cl)c2)cc1Cl)COP(=O)(O)O [Example 48, (R)-2-amino-5-[2-chloro-4-(3-chlorophenylthio)phenyl]-2-methylpentyl phosphonic acid monoester] | 1 to 10 | < 1 | > 10000
10 | C[C@@](N)(CCCc1ccc(Sc2cccc(C(F)(F)F)c2)cc1F)COP(=O)(O)O [Example 49, (R)-2-amino-5-[2-fluoro-4-(3-trifluoromethylphenylthio)phenyl]-2-methylpentyl phosphonic acid monoester] | < 1 | 1 to 10 | > 10000
11 | CCC[C@@](N)(CCCc1ccc(Sc2cccc(C(F)(F)F)c2)cc1Cl)COP(=O)(O)O [Example 50, (R)-2-amino-5-[2-chloro-4-(3-trifluoromethylphenylthio)phenyl]-2-propylpentyl phosphonic acid monoester] | < 1 | 1 to 10 | > 10000
12 | C[C@@](N)(CCCc1ccc(Sc2cccc(C(F)F)c2)cc1Cl)COP(=O)(O)O [Example 51, (R)-2-amino-5-[2-chloro-4-(3-difluoromethylphenylthio)phenyl]-2-methylpentyl phosphonic acid monoester] | 1 to 10 | 1 to 10 | > 10000
